Biological target: tau (Homo sapiens, UniProt P10636)
Assay: MCE Phenols Library screening, tau biosensor cell seeding assay (AvZ)
Assay type: cell-based
Conditions: for Z repl 1 / Z Repl 2: Z score; for Z repl 1 / raw data 1: replicate 1; for Z Repl 2 / raw data 2: replicate 2
[1] = average Z score of the two replicates, MCE Phenols Library screen
[2] = average puncta of the two replicates
[3] = average Z score of the two replicates, tau biosensor seeding, MCE Phenols Library screen
[4] = average Z score of the two replicates, tau seeding
[5] = average Z score of two replicates, Phenols Library screen

tau, sequence (P10636 623-695 limits assumed): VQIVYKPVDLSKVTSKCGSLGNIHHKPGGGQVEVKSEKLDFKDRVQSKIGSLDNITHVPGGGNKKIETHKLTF

SMILES | Z repl 1 | Z Repl 2 | av Z [1] | av puncta [2] | raw data 1 (puncta) | raw data 2 (puncta) | av puncta (average of raw data 1 and 2) | av Z [4] | av Z [5] | raw data 1 (raw puncta) | raw data 2 (raw puncta) | av Z [3]
O=c1cc(-c2ccc(O)cc2)oc2cc(O)c([C@@H]3O[C@H](CO)[C@@H](O)[C@H](O)[C@H]3O[C@@H]3OC[C@H](O)[C@H](O)[C@H]3O)c(O)c12 [Isovitexin 2''-O-arabinoside] | -0.906 | -0.245 | -0.575 | 12810.9 | 15471.3 | 10150.6 | – | – | – | – | – | –
O=c1cc(-c2ccc(O)cc2)oc2cc(O)c([C@@H]3O[C@H](CO)[C@@H](O)[C@H](O)[C@H]3O)c(O)c12 [Isovitexin] | 0.953 | 1.769 | – | – | 37791.5 | 31663.6 | 34727.5 | – | – | – | – | 1.361
COc1cc(-c2cc(=O)c3c(O)c(OC)c(O)cc3o2)ccc1O [Jaceosidin] | 1.473 | 0.443 | – | – | 44034.1 | 17499.7 | 30766.9 | – | – | – | – | 0.958
COc1cc2c(cc1O)CC[n+]1cc3c(OC)c(OC)ccc3cc1-2.[Cl-] [Jatrorrhizine (chloride)] | 0.505 | -0.062 | – | – | 32409.6 | 12098.4 | 22254 | 0.221 | – | – | – | –
COc1ccc(CCO[C@@H]2O[C@H](CO[C@@H]3O[C@H](CO)[C@H](O)[C@H](O)[C@H]3O)[C@@H](OC(=O)/C=C/c3ccc(O)c(OC)c3)[C@H](O[C@@H]3O[C@@H](C)[C@H](O)[C@@H](O)[C@H]3O)[C@H]2O)cc1O [Jionoside B1] | 0.183 | -0.42 | – | – | 28546.2 | 8283.25 | 18414.7 | – | -0.118 | – | – | –
COc1ccc(-c2oc3cc(O)cc(O)c3c(=O)c2O)cc1 [Kaempferide] | -0.102 | -1.05 | -0.576 | 13337 | 25119.1 | 1554.77 | – | – | – | – | – | –
OC[C@H]1O[C@@H](Oc2cc3c(O)cc(O)cc3[o+]c2-c2ccc(O)c(O)c2)[C@H](O)[C@@H](O)[C@@H]1O.[Cl-] [Kuromanin (chloride)] | -0.084 | -0.888 | -0.486 | 14314.9 | 25345.8 | 3284.04 | – | – | – | – | – | –

Further lines, with some results ahead:

Z repl 1 | Z Repl 2 | av Z [1] | av puncta [2] | raw data 1 (puncta) | raw data 2 (puncta) | av puncta (average of raw data 1 and 2) | av Z [4] | av Z [5] | raw data 1 (raw puncta) | raw data 2 (raw puncta) | SMILES | av Z [3]
-1.403 | -0.446 | -0.924 | – | 9507.36 | 8006.82 | 8757.09 | – | – | – | – | C[C@@H]1O[C@@H](Oc2cc(O)c3c(=O)c(O[C@@H]4O[C@@H](C)[C@H](O)[C@@H](O)[C@H]4O)c(-c4ccc(O)cc4)oc3c2)[C@H](O)[C@H](O)[C@H]1O [Kaempferitrin] | –
0.499 | 0.597 | – | – | 32345.4 | 19144.3 | 25744.8 | 0.548 | – | – | – | O=C(O)[C@H]1O[C@@H](Oc2c(-c3ccc(O)cc3)oc3cc(O)cc(O)c3c2=O)[C@H](O)[C@@H](O)[C@@H]1O [Kaempferol 3-O-?-D-glucuronide] | –
0.421 | -0.356 | – | – | 31398.7 | 8962.19 | 20180.4 | – | 0.032 | – | – | O=c1c(O[C@@H]2O[C@H](CO[C@@H]3O[C@H](CO)[C@@H](O)[C@H](O)[C@H]3O)[C@@H](O)[C@H](O)[C@H]2O)c(-c2ccc(O)cc2)oc2cc(O)cc(O)c12 [Kaempferol 3-O-gentiobioside] | –
-0.587 | 0.035 | -0.276 | 16225.3 | – | – | – | – | – | 19307.9 | 13142.7 | O=c1c(O[C@@H]2O[C@H](CO)[C@@H](O)[C@H](O)[C@H]2O[C@@H]2O[C@H](CO)[C@@H](O)[C@H](O)[C@H]2O)c(-c2ccc(O)cc2)oc2cc(O)cc(O)c12 [Kaempferol 3-O-sophoroside] | –
-1.386 | -0.619 | -1.002 | – | 9710.86 | 6160.09 | 7935.47 | – | – | – | – | C[C@@H]1O[C@@H](O[C@H]2[C@H](Oc3c(-c4ccc(O)cc4)oc4cc(O)cc(O)c4c3=O)O[C@H](CO)[C@@H](O)[C@@H]2O)[C@H](O)[C@H](O)[C@H]1O [Kaempferol 3-neohesperidoside] | –
-0.601 | -1.001 | -0.801 | – | 19130.8 | 2076.39 | 10603.6 | – | – | – | – | C[C@H]1O[C@@H](O[C@H]2[C@H](Oc3c(-c4ccc(O)cc4)oc4cc(O)cc(O)c4c3=O)O[C@@H](CO)[C@H](O)[C@H]2O)[C@H](O)[C@@H](O)[C@@H]1O [Kaempferol-3-O-glucorhamnoside] | –
-0.004 | -0.903 | -0.454 | 14707.1 | – | – | – | – | – | 26297.7 | 3116.65 | O=c1c(O)c(-c2ccc(O)cc2)oc2cc(O)cc(O)c12 [Kaempferol] | –
-0.156 | -0.952 | -0.554 | 13541.2 | 24479.5 | 2602.81 | – | – | – | – | – | O=C(CCc1ccc(O)c(O)c1)NCCCNCCCCNCCCNC(=O)CCc1ccc(O)c(O)c1 [Kukoamine A] | –
-1.263 | -0.72 | -0.992 | – | 11188.8 | 5072.6 | 8130.71 | – | – | – | – | NCCCN(CCCCNCCCNC(=O)CCc1ccc(O)c(O)c1)C(=O)CCc1ccc(O)c(O)c1 [Kukoamine B] | –
0.183 | 1.024 | – | – | 28541 | 23704.6 | 26122.8 | 0.603 | – | – | – | C=C(C)[C@H](CC=C(C)C)Cc1c(O)cc(O)c2c1O[C@H](c1ccccc1O)CC2=O [Kushenol A] | –

Reference: publication PMC11784839, “Monoaminergic neurotransmitters are bimodal effectors of tau aggregation” (Science Advances, 2025)
